Five molecules from patent US20050054018A1, “Activated checkpoint therapy and methods of use thereof” (priority 2002, published 2005) can be followed below.

Molecules are shown by their SMILES.

One series relates to DLD1. The series can be described thus: Cancer cell line IC50, DLD1. It is filed as cell-based. The note with it: Homo sapiens, DLD-1; read-out: Cancer Cell Lines, IC50, Colon DLD1.
The test system of another series is SW480. Kind of series: Cancer cell line IC50, SW480. As to conditions: Homo sapiens, read-out: Cancer Cell Lines, IC50, Colon SW480. It is filed as cell-based.
The next series has as its system MCF-7. The series can be described thus: Cancer cell line IC50, MCF-7. It is filed as cell-based. As to conditions: Homo sapiens, MCF7; read-out: Cancer Cell Lines, IC50, Breast MCF-7. Here is the method:
(§1) In this experiment, exponentially growing cells were seeded at 1000 cells/well and allowed to attach for 48 h. […] After 10-20 days, cells were fixed and stained with modified Wright-Giemsa stain.

A further series has as its system PaCa-2. Kind of series: Cancer cell line IC50, PaCa-2. It is filed as cell-based. The note with it: Homo sapiens, read-out: Cancer Cell Lines, IC50, Pancreas PaCa-2.
A further series concerns A549. The series can be described thus: Cancer cell line IC50, A549. As to conditions: Homo sapiens, read-out: Cancer Cell Lines, IC50, Lung A549. It is filed as cell-based.
A further series relates to HT-29. Kind of series: Cancer cell line IC50, HT-29. It is filed as cell-based. As to conditions: Homo sapiens, read-out: Cancer Cell Lines, IC50, Colon HT-29.
A further series relates to NCM460. The series can be described thus: Normal cell line, NCM460. It is filed as cell-based. The note with it: Homo sapiens, read-out: Normal Cell Lines, Colon NCM460.
In another series the test system is MCF10A. Kind of series: Normal cell line, MCF10A. It is filed as cell-based. The note with it: Homo sapiens, MCF-10A; read-out: Normal Cell Lines, Breast MCF10A. Here is the method: as §1
Series [1] deals with Normal Cell Lines vs Cancer Cell Lines. Kind of series: Fold selectivity, normal vs cancer cell lines. It is filed as cell-based.
The next series has as its system human cancer cells. Kind of series: Combination with Taxol, cancer cell survival in vitro. As to conditions: in the presence of β-Lapachone. It is filed as cell-based.
In series [2] the test system is human multiple myeloma (MM) cells. Kind of series: MTT assay, multiple myeloma cells. It is filed as cell-based. The note with it: 4 μM, 24 h, all seven MM cell lines.
Series [3] concerns normal human Peripheral Blood Mononuclear Cells (PBMC). Kind of series: MTT assay, PBMC. It is filed as cell-based. The note with it: 0.5, 2, 4, and 8 μM, 24 h; fresh or proliferating PBMC. Here is the method: Proliferating PBMC were generated by 72 h incubation with phytohemagglutinin (PHA) at 2 μg/mL.
Series [4] concerns human breast cancer cells (MCF-7). The series can be described thus: Colony formation assay, MCF-7. It is filed as cell-based. As to conditions: MCF-7, 4 h treatment, 2-4 μM and higher, 10-20 days. Here is the method:
as §1

The test system of series [5] is normal human breast epithelial cells (MCF-10A). The series can be described thus: Colony formation assay, MCF-10A. It is filed as cell-based. As to conditions: 4 h treatment, 10-20 days. The protocol: as §1
For series [6], the system named is human colon cancer cell line DLD1. The series can be described thus: Colony formation and MTT assay, DLD1. It is filed as cell-based. As to conditions: DLD1, 4 hour exposure, 4-5 μM. Here is the method: DLD1 cells were seeded into 6-well, 96-well plates and allowed to attach overnight. […] Control cells were treated with DMSO equivalent to the highest dose of β-Lapachone used. For the colony formation assay, colonies were allowed to grow for 14 days; MT assay cells continued in culture for an additional 2 days.

Series [7] has as its system human colon carcinoma cells (DLD1). The series can be described thus: Flow cytometry sub-G1 apoptosis, DLD1. It is filed as cell-based. As to conditions: DLD1, 2-4 μM, 24 h. The protocol: (§2) Cells were treated for 24 h, then were subjected to flow cytometric analysis after staining with propidium iodide.
Series [8] deals with human colon carcinoma cells (SW480). The series can be described thus: Flow cytometry sub-G1 apoptosis, SW480. As to conditions: SW480, 2-4 μM, 24 h. It is filed as cell-based. Here is the method: as §2
The test system of series [9] is normal human colon cells (NCM460). The series can be described thus: Flow cytometry sub-G1 apoptosis, NCM460. It is filed as cell-based. The note with it: NCM460, 24 h. The protocol: as §2
The next series has as its system cytochrome c. Kind of series: Western blot, cytochrome c release in DLD1. It is filed as cell-based, human.
A further series deals with PARP. Kind of series: Western blot, PARP cleavage. As to conditions: after 4 hours of exposure. It is filed as cell-based, human.
Series [10] concerns E2F. Kind of series: Gel mobility shift assay, DLD1 nuclear proteins. It is filed as cell-based, human. The note with it: DLD1, 4 μM. An excerpt: (§3) The arrow denotes the location of the putative E2F protein-DNA complex.
Series [11] has as its system E2F. Kind of series: Gel mobility shift assay, NCM460 nuclear proteins. It is filed as cell-based, human. The note with it: NCM460, 4 μM, up to 2 hours.
Excerpt: as §3

The subject of series [12] is human prostate cancer cells (PC-3). Kind of series: Colony survival, combination with GL331, PC-3. It is filed as cell-based. An excerpt:
(§4) The number of colonies in the control well (solvent-treated) was taken as 100% survival.

For series [13], the system named is human pancreatic cancer cells (Paca-2). The series can be described thus: Colony survival, combination with gemcitabine, Paca-2. As to conditions: gemcitabine 5 μg/ml day 1 followed by β-lapachone 2 μM day 2. It is filed as cell-based.
Excerpt: as §4

As for `CC1(C)CCC2=C(S1)c1ccccc1C(=O)C2=O` [3,4-dihydro-2,2-dimethyl-2H-naphtho[1,2-b]thiopyran-5,6-dione], the IC50 with DLD1 stood at 2000 nM; with SW480 it was 1500 nM; in the series with MCF-7, 1000 nM; in the series on PaCa-2, 1500 nM; with A549, 1700 nM; in the series on HT-29, 1800 nM. For the same molecule, the figures for the IC50 in the series with NCM460 and with MCF10A were 7500 nM and 6700 nM, respectively. Further, in series [1], the “Fold Selectivity” value is given as “˜4.5”.
As for `CC(C)=CCC1CC2=C(OC1(C)C)c1ccccc1C(=O)C2=O` (stereo not shown) [3,4-dihydro-2,2-dimethyl-3-(3-methyl-2-butenyl)-2H-naphtho[1,2-b]pyran-5,6-dione], the IC50 with DLD1 was 1300 nM; in the series with SW480, 1800 nM; in the series on MCF-7 it was 1000 nM; in the series with NCM460 it was 10000 nM. The “Fold Selectivity” value in series [1] is reported as “˜7”.
For the molecule `CC1(C)CCSC2=C1C(=O)C(=O)c1ccccc12` [3,4-dihydro-4,4-dimethyl-2H-naphtho[1,2-b]thiopyran-5,6-dione], the IC50 in the series with PaCa-2 was 1200 nM; with A549 it was 1600 nM; with HT-29 it was 1600 nM; with NCM460 it was 6000 nM; in the series on MCF10A, 6300 nM. Besides, the “Fold Selectivity” value in [1] is on record as “˜4”.
For the molecule `CC(=O)O[C@H]1C(=O)[C@@]2(C)[C@H]([C@H](OC(=O)c3ccccc3)[C@]3(O)C[C@H](OC(=O)[C@H](O)[C@@H](NC(=O)c4ccccc4)c4ccccc4)C(C)=C1C3(C)C)[C@]1(OC(C)=O)CO[C@@H]1C[C@@H]2O` [Taxol®, paclitaxel], in the series on human cancer cells, the “reduction of effective Taxol concentration” value is “at least 10 fold”.
For the molecule `CC1(C)CCC2=C(O1)c1ccccc1C(=O)C2=O` [β-lapachone, 3,4-dihydro-2,2-dimethyl-2H-naphtho[1,2-b]pyran-5,6-dione], the IC50 in the series with DLD1 turned out to be 3600 nM; with SW480 it was 3300 nM; in the series on MCF-7, 1000 nM; in the series with PaCa-2, 1600 nM; in the series with HT-29, 2100 nM; with NCM460 it was 8100 nM. The IC50 with MCF10A amounted to 5800 nM. Besides, in series [2], the “cell viability in cultures (MTT)” value is given as “significantly decreased”. The “cytotoxicity to PBMC growth (MTT)” value in [3] is “No cytotoxicity”. For the same molecule, the colonies entry in [4] is “essentially complete elimination of colonies”. The number of colonies result in series [5] is “no reduction in the number of colonies”. For the same molecule, in series [5], the “size of the colonies” value is listed as “smaller”. In series [6], the “viable cells (colony formation and MTT assay)” value is given as “eliminates viable cells”. Further, the “apoptosis (sub-G1 fraction)” value in [7] is on record as “induce apoptosis”; in [8], “induce apoptosis”; in series [9], “no apoptosis”. Further, the “time of peak cytochrome c release” value in the series with cytochrome c (DLD1) is 2 h. Further, in the series with cytochrome c (DLD1, earliest release), the “exposure time to cytochrome c release” value was 1 h. Besides, the PARP cleavage entry with PARP is on record as “cleavage of PARP”. The entries for the “nuclear E2F protein levels vs. starting levels” value in the series with E2F [10] (0.5 hours) and in the series with E2F [10] (1 hour) were “increased” and “markedly elevated”, respectively. Besides, in the series with E2F [11], the “level of E2F expression” value is “essentially unchanged”. Moreover, the “colony survival, combination with GL331” value is listed as “complete eradication of colony forming units” in [12] (β-lapachone 2 μM and GL331 2 μM simultaneously, 4 h); “complete eradication of colony forming units” in [12] (β-lapachone 2 μM day 1 followed by GL331 2 μM day 2). Moreover, the “colony survival, combination with gemcitabine” value in series [13] is given as “complete eradication of colony forming units”.
